Measured values published in patent US11104589B2, “Recycling method of amphiphilic surface-active pollutants in water” (INSTITUTE OF PROCESS ENGINEERING, CHINESE ACADEMY OF …, priority 2018, dated 2021).

Test system: Human lung cancer cell line A549 cells
Test: MTT cytotoxicity assay
Assay type: cell-based
Settings: 24 hours incubation
Experimental: Human lung cancer cell line A549 cells were grown in DMEM medium supplemented with 10% (v/v) of fetal bovine serum (FBS) and 1% of penicillin streptomycin. A549 was first incubated at 37° C. for 24 hours with a density of 5000 cells per well. After being washed with phosphate buffered saline (PBS, pH=7.4), A549 cells were incubated together with 200 μL of medium having various concentrations for 24 hours (15 μ[…]). Three sets of parallel replicates were prepared for each concentration. Then, the medium was removed and replaced with 20 μL of MTT solution (5 mg/mL). A549 cells were further incubated for 3 hours. The medium having MTT was removed and replaced with 100 μL of DMSO. The plate was then shaken for 10 minutes. To assess cell viability, the optical density of the mixture at 492 nm was measured by an enzyme-linked immunosorbent assay spectrophotometer (infinite […]). For labeling, A549 cells were incubated at 37° C. for 24 hours in a cell culture dish with glass bottom at a density of 5000 cells/well and then mixed with prepared FCNs samples. […] The cell culture dish with glass bottom was covered with a tin foil until cell images were obtained by fluorescence microscopy under excitation at 408 nm, 488 nm and 561 nm.

CCCCCCCCC(=O)O [nonanoic acid]
toxicity to the cells (cytotoxicity, MTT) (concentration greater than 3840 μM): significant toxicity to the cells
effect on cell viability (cytotoxicity, MTT) (low concentration (15-240 μM)): almost no effect on cell viability
